pIC50: −log10 of the molar value.
How the values were obtained:
[1] = molecular target: T1, Norepinephrine Transporter (NET) (Homo sapiens, UniProt P23975); experiment: Radioligand binding assay, [125I] RTI-55, Norepinephrine Transporter; settings: human recombinant, MDCK cell membranes; [125I] RTI-55 0.20 nM; 3 hours at 4° C.; read-out: ˜IC50, inhibition of binding to NET
T1 construct: expressed in transfected cells; host or cells: MDCK cells (membrane preparations)
Procedure: (§1) Inhibition of binding to the Dopamine Transporter (DAT) and Norepinephrine Transporter (NET) by MSI-1436 was determined in radioligand binding assays using human recombinant proteins expressed in CHO-K1 or MDCK cells, respectively. Membrane preparations were incubated with [^125I] RTI-55 (0.15 nM for DAT, 0.20 nM for NET) in the presence of 1436 (0.005 μM to 50 μM) for 3 hours at 4° C. IC50 values were determined as in PTP1B assays (See Table 2).

[2] = molecular target: T2, CHO-K1 cells expressing dopamine transporters (Homo sapiens, UniProt Q01959); experiment: Cellular uptake of [3H] Dopamine; format: cell-based
T2 construct: expressed in transfected cells; host or cells: CHO-K1 cells
T2 sequence (Q01959 whole entry): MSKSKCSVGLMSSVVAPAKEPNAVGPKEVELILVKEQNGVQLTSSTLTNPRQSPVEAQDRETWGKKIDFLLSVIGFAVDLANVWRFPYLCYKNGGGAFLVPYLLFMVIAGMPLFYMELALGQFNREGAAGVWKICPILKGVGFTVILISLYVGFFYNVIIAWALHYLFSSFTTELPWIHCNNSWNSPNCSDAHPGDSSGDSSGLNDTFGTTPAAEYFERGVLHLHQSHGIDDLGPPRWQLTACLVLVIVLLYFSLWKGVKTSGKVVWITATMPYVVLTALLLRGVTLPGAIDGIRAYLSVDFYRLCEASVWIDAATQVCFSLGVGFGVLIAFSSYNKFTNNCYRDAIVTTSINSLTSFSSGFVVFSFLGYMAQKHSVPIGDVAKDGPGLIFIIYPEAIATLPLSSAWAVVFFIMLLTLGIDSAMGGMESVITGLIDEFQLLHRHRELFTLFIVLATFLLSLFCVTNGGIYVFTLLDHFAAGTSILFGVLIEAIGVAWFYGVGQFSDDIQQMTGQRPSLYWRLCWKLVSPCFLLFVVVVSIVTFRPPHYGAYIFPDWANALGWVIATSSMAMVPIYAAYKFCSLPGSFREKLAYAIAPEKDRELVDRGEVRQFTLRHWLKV
Procedure: (§2) After 10-minute incubations of the cells with radioactive ligands in the presence of compound at room temperature, quantitation of [^3H] Dopamine or [^3H] […] Significance criteria for antagonism was met if there was ≧50% inhibition of uptake as compared to the induced response of nomifensine (DAT) or desipramine (NET).

[3] = molecular target: T3, Dopamine Transporter (DAT) (Homo sapiens, UniProt Q01959); experiment: Radioligand binding assay, [125I] RTI-55, Dopamine Transporter; settings: human recombinant, CHO-K1 cell membranes; [125I] RTI-55 0.15 nM; 3 hours at 4° C.; read-out: ˜IC50, inhibition of binding to DAT
T3 construct: expressed in transfected cells; host or cells: CHO-K1 cells (membrane preparations)
T3 sequence (Q01959 whole entry): as above
Procedure: as §1

[4] = tested on: male AKR/J mice on 60% fat diet; experiment: Histology of adipose tissue in mice on 60% fat diet; format: in vivo; settings: mouse on 60% fat diet; i.p. q7dx4, 10 then 5 mg/kg
Description: (§3) Mice and Study Design. At weaning, male AKR/J mice from Jackson Laboratories (Bar Harbor, Me., USA) were placed on a 10%, 45%, or 60% fat kcal diet (Research Diets, Inc., New Brunswick, N.J., USA). Mice were weighed weekly and treatment began after 13-14 weeks of access to the different fat diets. Immediately before the start of treatment, mice from all three diets were randomly subdivided further into three groups within the same fat composition diet with an even weight distribution. All mice were dosed (i.p. route) on a q7dx4 schedule, where the first dose of 1436 was 10 mg/kg and all remaining doses were 5 mg/kg. Saline-treated animals were administered 10 mL/kg. Pair-fed animals were dosed with saline (10 mL/kg) on the same q7dx4 schedule on a 1-day stagger from the other groups. As a measure of food consumption, remaining food was weighed daily. Pair-fed groups were allotted the exact amount of food consumed by 1436-treated groups in the 24 hours prior. All procedures involving mice were performed in accordance with protocols approved by the Institutional Animal Care and Use Committee.
Histology. Intrascapular brown adipose tissue was fixed in 10% zinc formalin (Fisher Scientific, Kalamazoo, Mich., USA) for 48 hours and transferred to 70% EtOH. Tissues were embedded in paraffin and […] sections were applied to glass microscope slides. […]

ob/ob mice = experiment: Ex vivo liver IRS-1 phosphorylation in ob/ob mice (effect on PTP1B); settings: single dose 10 mg/kg i.p., 24 hours after treatment, livers harvested 2 min after portal vein insulin
Procedure: To examine the effect of MSI-1436 on PTP1B ex vivo, ob/ob mice were treated with either vehicle, MSI-1436 (single dose, 10 mg/kg, i.p.) or pair-fed control mice (n=4 per group). Twenty-four hours after the single treatment, mice were anesthetized and portal vein was exposed via an incision. Insulin or phosphate buffered saline (PBS) was injected into the portal vein and livers were harvested 2 min after the injection. Livers were lysed and lysates were immunoprecipitated with anti-insulin receptor substrate-1 (IRS-1) and then blotted for phosphotyrosine with the resultant blots representing phosphorylated insulin receptor substrate-1 (P-IRS-1). The blots were analyzed using imaging software.

[5] = tested on: male AKR/J mice on 10%, 45% or 60% fat kcal diet; experiment: Induction of weight loss in diet induced obese mice; format: in vivo
Description: as §3

HepG2 cells = experiment: Insulin receptor-beta phosphorylation in HepG2 cells (immunoprecipitation, Western blot); format: cell-based
Procedure: HepG2 cells (immortalized hepatocyte cells) were treated with 10 nM insulin, […], neither, or both for either 30 minutes or 3 hours in vitro. […] No difference in the amounts of insulin receptor-beta (IR-beta) was noted (Panel A). […] This effect was slightly diminished at 3 hours.

[6] = tested on: male AKR/J mice on 10%, 45% or 60% fat kcal diet; experiment: Body composition of diet induced obese mice at end of study; format: in vivo; settings: i.p. q7dx4, 10 then 5 mg/kg
Description: as §3, with “Pair-fed groups were allotted the exact amount of food consumed by 1436-treated groups in the 24 hours prior. All procedures involving mice were performed in accordance with protocols approved by the Institutional Animal Care and Use Committee.” left out
Body Composition. Body composition (percent moisture, fat, protein and ash) was determined according to methods described with modifications (Official Methods of Analysis of AOAC INTERNATIONAL, 2000). […] Protein was determined through the combustion method for nitrogen detection and a factor of 6.25 was used to convert percent nitrogen to percent protein. To determine ash, samples were ignited at 550° C. for 5 hours and quantified gravimetrically.

[7] = molecular target: T4, MDCK cells expressing norepinephrine transporters (Homo sapiens, UniProt P23975); experiment: Cellular uptake of [3H] Norepinephrine; format: cell-based
T4 construct: expressed in transfected cells; host or cells: MDCK cells
T4 sequence (P23975 whole entry): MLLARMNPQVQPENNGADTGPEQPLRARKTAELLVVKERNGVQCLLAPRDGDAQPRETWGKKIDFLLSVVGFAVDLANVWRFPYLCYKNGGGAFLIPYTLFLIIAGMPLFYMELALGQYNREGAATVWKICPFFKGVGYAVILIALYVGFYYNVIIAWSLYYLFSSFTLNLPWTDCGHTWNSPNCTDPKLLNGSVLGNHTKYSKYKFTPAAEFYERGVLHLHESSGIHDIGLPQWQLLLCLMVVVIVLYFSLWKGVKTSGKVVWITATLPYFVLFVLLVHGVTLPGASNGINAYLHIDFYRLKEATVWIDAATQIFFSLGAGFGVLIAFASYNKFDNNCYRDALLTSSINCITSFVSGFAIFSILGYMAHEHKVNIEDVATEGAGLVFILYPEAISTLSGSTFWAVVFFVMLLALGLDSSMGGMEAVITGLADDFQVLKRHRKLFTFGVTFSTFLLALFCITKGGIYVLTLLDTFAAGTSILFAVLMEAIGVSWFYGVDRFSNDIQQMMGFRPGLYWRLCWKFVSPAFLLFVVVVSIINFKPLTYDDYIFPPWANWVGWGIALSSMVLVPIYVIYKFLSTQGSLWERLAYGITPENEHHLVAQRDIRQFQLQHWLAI
Procedure: as §2

TCPTP = molecular target: T5, TCPTP (Homo sapiens, UniProt P17706); experiment: TCPTP enzyme inhibition assay (DiFMUP substrate, spectrofluorimetric); format: biochemical
T5 construct: MDS Pharma (contract assay); host or cells: E. coli
T5 sequence (P17706 1-415): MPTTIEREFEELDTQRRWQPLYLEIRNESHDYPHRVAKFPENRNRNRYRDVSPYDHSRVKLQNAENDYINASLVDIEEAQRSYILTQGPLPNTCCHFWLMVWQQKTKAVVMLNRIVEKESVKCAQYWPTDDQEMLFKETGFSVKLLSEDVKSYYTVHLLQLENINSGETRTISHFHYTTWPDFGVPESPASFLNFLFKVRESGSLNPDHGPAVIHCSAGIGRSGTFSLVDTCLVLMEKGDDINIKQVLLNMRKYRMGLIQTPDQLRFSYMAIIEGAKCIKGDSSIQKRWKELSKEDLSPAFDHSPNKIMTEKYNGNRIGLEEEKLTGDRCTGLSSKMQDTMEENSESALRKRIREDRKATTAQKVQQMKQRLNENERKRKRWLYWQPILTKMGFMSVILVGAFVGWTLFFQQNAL
Procedure: In the PTP1B assay, phosphatase activity was quantitated through ELISA analysis of remaining tyrosine phosphopeptide after 30-minute incubations at room temperature with various concentrations of 1436 (0.05 μM to […]). […] The TCPTP assay required a 15-minute preincubation of enzyme and substrate at 37° C. followed by 60-minute incubations at 37° C. with various concentrations of 1436 (0.5 μM to 50 μM). TCPTP activity was assessed by spectrofluorimetric quantitation of DiFMU.

T1 sequence (P23975 whole entry): as the sequence (P23975 whole entry) above

CC(C)[C@@H](CC[C@@H](C)[C@H]1CC[C@H]2[C@@H]3[C@H](O)C[C@H]4C[C@@H](NCCCNCCCCNCCCN)CC[C@]4(C)[C@H]3CC[C@]12C)OS(=O)(=O)O [compound 1436]
pIC50 [1]: 5.49 | inhibition at 0.05 µM ([2]; CHO-K1, 1436 0.05 μM): 1% | inhibition at 0.25 µM ([2]; CHO-K1, 1436 0.25 μM): 39% | inhibition at 0.5 µM ([2]; CHO-K1, 1436 0.5 μM): 57% | inhibition at 2.5 µM ([2]; CHO-K1, 1436 2.5 μM): 81% | inhibition at 5 µM ([2]; CHO-K1, 1436 5.0 μM): 94% | pIC50 ([2]; CHO-K1 cells, 10-minute incubation at room temperature, read-out: IC50, inhibition of Dopamine uptake): 6.37 | pIC50 [3]: 5.76 | amount of fat in brown adipose tissue (BAT), histology [4]: lost all of the fat gained by the 60% diet | amount of fat in white adipose tissue (WAT), histology [4]: lost all of the fat gained by the 60% diet | insulin-induced phosphorylation of IRS-1 in liver (ob/ob mice): enhanced the insulin-induced phosphorylation of IRS-1 | body weight after treatment ([5]; 10%, 45% and 60% fat diet groups, i.p. q7dx4, first dose 10 mg/kg, remaining 5 mg/kg, three weeks): lost weight | effect on weight loss versus pair-fed group ([5]; i.p. q7dx4, 10 then 5 mg/kg, greatest in 60% fat group (p value 0.013)): greater than the effect of diet alone | IR-beta phosphorylation, insulin plus MSI-1436 versus insulin alone (HepG2 cells; 10 nM insulin and 10 µM MSI-1436, 30 minutes): increased IR-beta phosphorylation | IR-beta phosphorylation, MSI-1436 alone (HepG2 cells; 10 µM MSI-1436 without insulin, 30 minutes or 3 hours): did not induce phosphorylation | % body fat (body composition at end of study) ([6]; all diets (10%, 45%, 60% fat)): lose significant % body fat | loss of body fat versus pair-fed groups [6]: trend for greater loss of body fat | pIC50 ([7]; MDCK cells, 10-minute incubation at room temperature, read-out: IC50, inhibition of Norepinephrine uptake): 6.14 | inhibition at 0.05 µM ([7]; MDCK, 1436 0.05 μM): 22% | inhibition at 0.25 µM ([7]; MDCK, 1436 0.25 μM): 26% | inhibition at 0.5 µM ([7]; MDCK, 1436 0.5 μM): 33% | inhibition at 2.5 µM ([7]; MDCK, 1436 2.5 μM): 78% | inhibition at 5 µM ([7]; MDCK, 1436 5.0 μM): 95% | inhibition of TCPTP at the concentrations tested (TCPTP; 1436 0.5 μM to 50 μM): no inhibition | pIC50 (TCPTP; human recombinant protein expressed in E. Coli, DiFMUP 10 μM, 60-minute incubation at 37° C., estimated): < 4.30

From US20080058300A1, “Induction of weight loss and the selective inhibition of PTP1B” (priority 2006, published 2008)
